Assay [1] deals with T1, Human HDAC6 (Homo sapiens, UniProt Q9UBN7).
T1 construct: Full length with N-terminal GST tag, MW=159 kDa; GST (N); host or cells: Sf9 insect cells (baculovirus)
T1 sequence (Q9UBN7 1-1215): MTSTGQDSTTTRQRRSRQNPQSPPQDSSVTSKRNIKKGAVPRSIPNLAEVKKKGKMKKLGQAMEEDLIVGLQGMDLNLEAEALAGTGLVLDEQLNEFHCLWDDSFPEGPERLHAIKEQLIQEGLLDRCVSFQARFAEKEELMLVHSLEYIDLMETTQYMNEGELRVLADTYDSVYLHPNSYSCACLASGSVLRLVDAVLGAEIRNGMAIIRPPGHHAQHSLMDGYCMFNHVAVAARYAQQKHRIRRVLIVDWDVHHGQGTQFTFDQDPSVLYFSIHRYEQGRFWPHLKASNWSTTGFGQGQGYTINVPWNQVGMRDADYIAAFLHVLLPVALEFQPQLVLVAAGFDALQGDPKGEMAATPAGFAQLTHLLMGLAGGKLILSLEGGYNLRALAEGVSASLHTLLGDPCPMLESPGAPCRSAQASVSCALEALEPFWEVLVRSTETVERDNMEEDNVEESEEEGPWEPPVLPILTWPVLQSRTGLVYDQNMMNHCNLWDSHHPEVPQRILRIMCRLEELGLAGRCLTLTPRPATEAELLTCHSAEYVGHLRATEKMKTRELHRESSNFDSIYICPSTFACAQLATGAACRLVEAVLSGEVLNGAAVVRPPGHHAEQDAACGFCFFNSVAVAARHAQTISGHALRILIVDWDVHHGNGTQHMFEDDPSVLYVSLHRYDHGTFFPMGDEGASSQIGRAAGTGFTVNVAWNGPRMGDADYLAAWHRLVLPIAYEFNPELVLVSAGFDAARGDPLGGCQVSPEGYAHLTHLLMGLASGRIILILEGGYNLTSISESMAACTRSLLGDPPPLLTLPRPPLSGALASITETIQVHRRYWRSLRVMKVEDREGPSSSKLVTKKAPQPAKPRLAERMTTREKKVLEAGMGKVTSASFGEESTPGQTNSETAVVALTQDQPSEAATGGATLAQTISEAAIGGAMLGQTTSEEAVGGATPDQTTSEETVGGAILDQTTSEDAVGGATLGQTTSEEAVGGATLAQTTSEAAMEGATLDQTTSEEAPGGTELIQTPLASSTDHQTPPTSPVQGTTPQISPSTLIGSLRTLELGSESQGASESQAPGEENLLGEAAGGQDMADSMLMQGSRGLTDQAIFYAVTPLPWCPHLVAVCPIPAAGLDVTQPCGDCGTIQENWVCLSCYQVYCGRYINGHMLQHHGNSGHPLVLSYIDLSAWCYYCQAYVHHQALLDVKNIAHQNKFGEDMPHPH
Description: HDAC6 inhibition assay (fluorogenic p53 peptide substrate). The class given is biochemical. How it is done:
The HDAC1, 2, 4, 5, 6, 7, 8, 9, 10, and 11 assays used isolated recombinant human protein; HDAC3/NcoR2 complex was used for the HDAC3 assay. Substrate for HDAC1, 2, 3, 6, 10, and 11 assays is a fluorogenic peptide from p53 residues 379-382 (RHKKAc); substrate for HDAC8 is fluorogenic diacyl peptide based on residues 379-382 of p53 (RHKAcKAc). Acetyl-Lys(trifluoroacetyl)-AMC substrate was used for HDAC4, 5, 7, and 9 assays. Compounds were dissolved in DMSO and tested in 10-dose IC50 mode with 3-fold serial dilution starting at 30 μM. Control Compound Trichostatin A (TSA) was tested in a 10-dose IC50 with 3-fold serial dilution starting at 5 μM. IC50 values were extracted by curve-fitting the dose/response slopes. Assays were performed in duplicate and IC50 values are an average of data from both experiments.
Human HDAC6 (GenBank Accession No. BC069243): Full length with N-terminal GST tag, MW=159 kDa, expressed by baculovirus expression system in Sf9 cells. Enzyme is in 50 mM Tris-HCl, pH 8.0, 138 mM NaCl, 20 mM glutathione, and 10% glycerol, and stable for >6 months at −80° C. Purity is >90% by SDS-PAGE. Specific Activity is 50 U/μg, where one U=1 pmol/min under assay condition of 25 mM Tris/Cl, pH8.0, 137 mM NaCl, 2.7 mM KCl, 1 mM MgCl2, and 0.1 mg/ml BSA, 30 μM HDAC substrate, and 5 ng/μl HDAC6, incubation for 60 min at 30° C.
Substrate for HDAC1 and HDAC6: Acetylated peptide substrate for HDAC, based on residues 379-382 of p53 (Arg-His-Lys-Lys(Ac)), a site of regulatory acetylation by the p300 and CBP acetyltransferases (lysines 381, 382)1-6, is the best for HDAC from among a panel of substrates patterned on p53, histone H3 and histone H4 acetylation sites7.
Reaction Buffer: 50 mM Tris-HCl, pH 8.0, 137 mM NaCl, 2.7 mM KCl, 1 mM MgCl2, 1 mg/ml BSA.
HDAC6: 12.6 nM HDAC6 and 50 μM HDAC substrate are in the reaction buffer and 1% DMSO final. Incubate for 2 hours at 30° C.
All IC50 values are automatically calculated using the GraphPad Prism version 5 and Equation of Sigmoidal dose-response (variable slope): Y=Bottom+(Top−Bottom)/(1+10^((Log EC50−X)*HillSlope)), where X is the logarithm of concentration, Y is the response, Y starts at Bottom and goes to Top with a sigmoid shape. In most cases, “Bottom” is set 0, and “Top” is set “less than 120%”. This is identical to the “four parameter logistic equation”. IC50 curves also are drawn using the GraphPad Prism, and IC50 values and Hill slopes are provided.
HDAC Activity Assays: HDAC assay is performed using fluorescently-labeled acetylated substrate, which comprises an acetylated lysine side chain. After incubation with HDAC, deacetylation of the substrate sensitizes the substrate such that, in a second step, treatment with the detection enzyme produces a fluorophore. HDACs 1 and 6 were expressed as full length fusion proteins. Purified proteins were incubated with 50 μM fluorescently-labeled acetylated peptide substrate and test compound for 2 hours at RT in HDAC assay buffer containing 50 mM Tris-HCl (pH 8.0), 137 mM NaCl, 2.7 mM KCl, 1 mM MgCl2, 1% DMSO, and 1% BSA.
Reactions were terminated by the addition of the Developer after 2 hours, and the development of fluorescence signal, which was relative to the amount of deacetylated peptide, was monitored by time-course measurement of EnVision (PerkinElmer). The HDAC activity was estimated from the slope of time-course measurement of the fluorescence intensity. The slope of no-enzyme control (substrate alone) was served as background, and % Enzyme activity was calculated using background-subtracted slope of no inhibitor control (DMSO) as 100% activity.

Assay [2] deals with HIF-1α. Description: HIF1 activation, ODD reporter assay. To be noted: measured at 10 μM. Format: cell-based. The protocol: The present compounds were evaluated for an ability to activate Nrf2 and HIF-1α. Table 1 summarizes Nrf2 activation data obtained in Neh2-luc reporter assay; and HIF1 activation measured in ODD reporter assay.
Background: In a reporter assay the amount or activity of a reporter protein is the signal.

Setting [3] is: Table 1, performed by Reaction Biology Corporation, read-out: HDAC isoform IC50 (nM) 6.
The mark [4] stands for this setting: Table 2 isoform selectivity, read-out: HDAC Inhibition (IC50 uM) isoform 6.

Where two headings read alike, the source gives them in different places.

In general, IC50 refers to the point on the concentration scale where inhibition reaches its midpoint. In general, fold induction refers to the ratio of treated to control signal. Lower therefore signals a weak induction.

As to `O=C(NO)c1ccc(CN2CCc3ccc(Cl)cc32)cc1` [II-ING-6, 4-((6-Chloroindolin-1-yl)methyl)-N-hydroxybenzamide], the IC50 in assay [1] (setting [3]) was determined as 11.5 nM; in assay [1] (setting [4]) it was 9 nM. For the same compound, in assay [2], the fold induction at 10 µM is 7.5.

In the case of `Cn1c(NCc2ccc(C(=O)NO)cc2)nc2ccccc21` [II-ING-13, N-Hydroxy-4-(((1-methyl-1H-benzo[d]imidazol-2-yl)amino)methyl)benzamide], the IC50 was 11 nM in assay [1] (setting [3]) and 9 nM in assay [1] (setting [4]). In addition, the fold induction at 10 µM in assay [2] turned out to be 2.6.

`O=C(NO)c1ccc(CN2CCc3cc(Cl)ccc32)cc1` [II-ING-39, 4-((5-Chloroindolin-1-yl)methyl)-N-hydroxybenzamide]: the IC50 in assay [1] (setting [3]) amounted to 21.5 nM. This compound displayed a fold induction at 10 µM in assay [2] of 7.

As to `O=C(NO)c1ccc(CN2CCc3ccc(F)cc32)cc1` [II-ING-41, 4-((6-Fluoroindolin-1-yl)methyl)-N-hydroxybenzamide], the figures for the IC50 in assay [1] (setting [3]) and in assay [1] (setting [4]) were 16.7 nM and 4 nM, respectively. For the same compound, the fold induction at 10 µM in assay [2] is 3.6.

Regarding `O=C(NO)c1ccc(CN2CCc3cc(F)ccc32)cc1` [II-ING-42, 4-((5-Fluoroindolin-1-yl)methyl)-N-hydroxybenzamide], in assay [1] (setting [3]), the IC50 came to 13.1 nM. Further, in assay [2], the fold induction at 10 µM was 1.4.

As for `O=C(NO)c1ccc(CN2CCc3ccccc32)cc1` [II-ING-44, N-Hydroxy-4-(indolin-1-ylmethyl)benzamide], the IC50 in assay [1] (setting [3]) amounted to 26.8 nM. In addition, the fold induction at 10 µM in assay [2] amounted to 1.4.

As to `COc1ccc2c(c1)CCN2Cc1ccc(C(=O)NO)cc1` [II-ING-49, N-Hydroxy-4-((5-methoxyindolin-1-yl)methyl)benzamide], the IC50 in assay [1] (setting [3]) was 11.5 nM. The same compound returned a fold induction at 10 µM in assay [2] of 1.

As to `O=C(NO)c1ccc(CN2C(=O)C(F)(F)c3ccccc32)cc1` [II-ING-66, 4-((3,3-Difluoro-2-oxoindolin-1-yl)methyl)-N-hydroxybenzamide], in assay [1] (setting [3]), the IC50 was 4.1 nM. In addition, the fold induction at 10 µM in assay [2] amounted to 5.6.

The values above are taken from patent US10934255B2, “Nrf and HIF activators/HDAC inhibitors and therapeutic methods using the same” (THE BOARD OF TRUSTEES OF THE UNIVERSITY OF ILLINOIS, priority 2017, dated 2021).
